The test system of one data set is KARPAS-299. As to the kind of experiment: cells. Conditions: Homo sapiens, KARPAS-299, 72 h.
In data set [1] the target is ALK tyrosine kinase receptor (Homo sapiens, UniProt Q9UM73). As to the kind of experiment: Inhibition of ALK (unknown origin).
Data set [2] concerns the target Phosphatidylinositol 4,5-bisphosphate 3-kinase catalytic subunit gamma isoform (Homo sapiens, UniProt P48736). As to the kind of experiment: Inhibition of PI3Kgamma (unknown origin).
In the next data set the test system is RPMI-8226. The experiment in a line: Anticancer activity against human RPMI-8226 cells assessed as reduction in cell growth. It counts as functional, cell-based.
Another data set relates to U-266. The experiment in a line: Antiproliferative activity against human U266B1 cells assessed as reduction in cell viability. It counts as functional, cell-based.
Data set [3] is described as follows: Inhibition of BTK C481T mutant (unknown origin). The arrangement: species or system Homo sapiens.
The target of data set [4] is Tyrosine-protein kinase BTK (Homo sapiens, UniProt Q06187).
Description: Inhibition of wild type BTK in human CLL cells assessed as
Data set [5] in a line: Antiproliferative activity against human ROSA KIT WT cells. It counts as toxicity, cell-based.
Data set [6] can be described thus: Anticancer activity against human ME-1 cells. The data set is classed as functional, cell-based.
The next data set relates to NCI-H358. As to the kind of experiment: Antiproliferative activity against human NCI-H358 cells assessed as reduction in cell viability. It counts as functional, cell-based.
Another data set deals with MIA PaCa-2. The experiment in a line: Antiproliferative activity against human MIA PaCa-2 cells assessed as reduction in cell viability. It counts as functional, cell-based.

The term IC50 denotes the concentration at which inhibition is half-maximal.

Where a name gives a salt, the structure may show the parent alone.

ALK tyrosine kinase receptor, sequence (Q9UM73 whole entry, canonical isoform): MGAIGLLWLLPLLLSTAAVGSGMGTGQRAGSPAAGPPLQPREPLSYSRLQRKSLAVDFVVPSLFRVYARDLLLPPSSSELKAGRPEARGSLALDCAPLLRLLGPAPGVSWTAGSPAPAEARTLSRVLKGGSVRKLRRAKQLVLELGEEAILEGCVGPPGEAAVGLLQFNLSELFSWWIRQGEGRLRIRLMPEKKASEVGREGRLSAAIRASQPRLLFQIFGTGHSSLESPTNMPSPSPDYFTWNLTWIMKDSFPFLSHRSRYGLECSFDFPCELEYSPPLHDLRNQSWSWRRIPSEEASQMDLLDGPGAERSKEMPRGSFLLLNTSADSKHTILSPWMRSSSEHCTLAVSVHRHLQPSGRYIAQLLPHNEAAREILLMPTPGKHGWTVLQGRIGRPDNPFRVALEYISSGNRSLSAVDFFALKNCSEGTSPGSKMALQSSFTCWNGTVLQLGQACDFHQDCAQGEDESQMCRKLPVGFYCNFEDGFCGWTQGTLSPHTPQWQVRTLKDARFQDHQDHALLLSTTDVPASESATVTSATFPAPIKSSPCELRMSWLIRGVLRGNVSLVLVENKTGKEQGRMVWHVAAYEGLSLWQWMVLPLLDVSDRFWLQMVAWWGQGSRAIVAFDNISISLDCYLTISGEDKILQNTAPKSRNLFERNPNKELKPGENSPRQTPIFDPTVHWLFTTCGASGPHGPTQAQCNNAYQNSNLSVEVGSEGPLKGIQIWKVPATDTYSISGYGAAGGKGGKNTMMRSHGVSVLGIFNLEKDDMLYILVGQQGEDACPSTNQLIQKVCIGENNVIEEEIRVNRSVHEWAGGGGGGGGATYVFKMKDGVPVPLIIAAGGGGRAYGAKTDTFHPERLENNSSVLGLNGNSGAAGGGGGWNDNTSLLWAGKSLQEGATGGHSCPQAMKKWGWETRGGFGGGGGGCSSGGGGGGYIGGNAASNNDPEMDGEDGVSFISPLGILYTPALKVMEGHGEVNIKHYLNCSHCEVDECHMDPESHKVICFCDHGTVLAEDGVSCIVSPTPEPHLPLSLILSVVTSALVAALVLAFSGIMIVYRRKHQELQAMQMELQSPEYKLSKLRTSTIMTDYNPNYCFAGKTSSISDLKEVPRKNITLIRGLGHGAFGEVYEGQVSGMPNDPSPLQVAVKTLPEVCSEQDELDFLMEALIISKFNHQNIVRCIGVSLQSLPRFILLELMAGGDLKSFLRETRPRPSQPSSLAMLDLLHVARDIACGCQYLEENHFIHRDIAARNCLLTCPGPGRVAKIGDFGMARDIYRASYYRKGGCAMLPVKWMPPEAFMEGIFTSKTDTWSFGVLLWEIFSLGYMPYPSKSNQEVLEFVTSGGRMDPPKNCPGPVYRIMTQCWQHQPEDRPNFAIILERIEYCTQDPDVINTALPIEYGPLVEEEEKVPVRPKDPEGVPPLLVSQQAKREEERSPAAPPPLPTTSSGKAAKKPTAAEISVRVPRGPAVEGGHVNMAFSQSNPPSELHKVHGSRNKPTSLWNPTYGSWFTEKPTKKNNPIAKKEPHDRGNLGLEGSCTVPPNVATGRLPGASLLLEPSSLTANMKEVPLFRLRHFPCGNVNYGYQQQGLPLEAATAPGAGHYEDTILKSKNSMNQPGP
Tyrosine-protein kinase BTK, sequence (Q06187 whole entry): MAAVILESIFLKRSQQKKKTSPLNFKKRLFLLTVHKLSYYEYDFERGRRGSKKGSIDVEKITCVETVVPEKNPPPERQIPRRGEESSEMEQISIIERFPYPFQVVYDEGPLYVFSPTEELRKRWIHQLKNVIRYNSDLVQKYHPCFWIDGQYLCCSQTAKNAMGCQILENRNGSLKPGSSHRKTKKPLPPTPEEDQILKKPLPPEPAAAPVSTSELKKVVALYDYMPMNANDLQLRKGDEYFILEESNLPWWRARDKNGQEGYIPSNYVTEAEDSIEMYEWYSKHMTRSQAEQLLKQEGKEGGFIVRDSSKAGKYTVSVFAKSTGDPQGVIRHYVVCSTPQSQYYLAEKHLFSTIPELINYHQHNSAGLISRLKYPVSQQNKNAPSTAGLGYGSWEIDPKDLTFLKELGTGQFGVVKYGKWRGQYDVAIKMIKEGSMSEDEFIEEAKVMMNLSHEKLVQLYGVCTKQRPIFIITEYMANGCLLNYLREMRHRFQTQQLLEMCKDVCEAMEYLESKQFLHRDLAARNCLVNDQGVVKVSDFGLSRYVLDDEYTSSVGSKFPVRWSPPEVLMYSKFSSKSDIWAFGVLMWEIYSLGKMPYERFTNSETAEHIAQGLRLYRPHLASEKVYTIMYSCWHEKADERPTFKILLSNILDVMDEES
Phosphatidylinositol 4,5-bisphosphate 3-kinase catalytic subunit gamma isoform, sequence (P48736 whole entry, canonical isoform): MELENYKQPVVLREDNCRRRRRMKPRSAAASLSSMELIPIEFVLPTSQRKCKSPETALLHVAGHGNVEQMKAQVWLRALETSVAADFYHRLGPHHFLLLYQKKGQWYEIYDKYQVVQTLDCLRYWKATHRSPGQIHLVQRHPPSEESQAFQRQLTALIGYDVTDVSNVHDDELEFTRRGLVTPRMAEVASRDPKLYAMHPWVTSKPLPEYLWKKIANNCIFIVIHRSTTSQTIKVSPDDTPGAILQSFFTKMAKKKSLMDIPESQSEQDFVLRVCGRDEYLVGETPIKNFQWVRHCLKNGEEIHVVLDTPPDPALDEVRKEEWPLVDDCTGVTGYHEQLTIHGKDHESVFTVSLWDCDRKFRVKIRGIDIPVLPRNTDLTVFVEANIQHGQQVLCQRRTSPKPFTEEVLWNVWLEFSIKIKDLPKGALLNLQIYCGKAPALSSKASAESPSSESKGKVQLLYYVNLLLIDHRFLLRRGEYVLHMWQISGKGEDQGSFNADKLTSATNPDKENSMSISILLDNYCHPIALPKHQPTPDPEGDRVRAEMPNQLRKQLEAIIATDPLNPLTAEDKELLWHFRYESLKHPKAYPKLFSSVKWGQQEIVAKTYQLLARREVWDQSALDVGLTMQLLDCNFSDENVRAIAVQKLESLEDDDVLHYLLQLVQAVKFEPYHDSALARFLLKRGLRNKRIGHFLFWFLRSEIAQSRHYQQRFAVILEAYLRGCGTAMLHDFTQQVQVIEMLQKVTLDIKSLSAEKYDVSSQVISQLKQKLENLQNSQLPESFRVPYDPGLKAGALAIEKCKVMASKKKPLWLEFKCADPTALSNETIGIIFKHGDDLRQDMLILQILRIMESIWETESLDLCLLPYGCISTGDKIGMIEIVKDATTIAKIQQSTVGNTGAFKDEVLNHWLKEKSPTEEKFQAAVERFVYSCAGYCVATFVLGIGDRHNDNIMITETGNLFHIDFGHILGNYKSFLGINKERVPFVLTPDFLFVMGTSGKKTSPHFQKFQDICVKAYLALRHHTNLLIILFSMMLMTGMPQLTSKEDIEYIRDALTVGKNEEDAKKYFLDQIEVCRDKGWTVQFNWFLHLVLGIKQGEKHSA
Description for KARPAS-299: Antiproliferative activity against human KARPAS-299 cells assessed as inhibition of cell growth incubated for 72 hrs by celltiter-glo assay

In the data set with KARPAS-299, `CN1CCN(c2ccc(C(=O)Nc3n[nH]c4ccc(Cc5cccc(F)c5)cc34)c(NC3CCOCC3)c2)CC1` had an IC50 of 10 nM.

In the case of `CN1CCN(c2ccc(C(=O)Nc3n[nH]c4ccc(Cc5ccccc5)cc34)c(NC3CCOCC3)c2)CC1`, the 50% inhibitory concentration (IC50) in data set [1] came out at 100 nM; with KARPAS-299 it was 180 nM.

The compound `CCC(=O)N1CC[C@H](Nc2ncnc3c2CN(c2cnc(OC)c(C(F)(F)F)c2)CC3)C1` [LENIOLISIB] gave a half-inhibitory concentration (IC50) in [2] of 2.23 nM.

In the case of `CCOC(=O)[C@H](Cc1ccc(F)cc1)NC(=O)[C@@H](N)Cc1ccc(N(CCCl)CCCl)cc1` [MELPHALAN FLUFENAMIDE HYDROCHLORIDE], the IC50 in the data set on RPMI-8226 is 4 nM; with U-266 it was 6 nM.

As for `COc1ccc(F)cc1C(=O)NCc1ccc(-c2nn([C@@H](C)C(F)(F)F)c(N)c2C(N)=O)cc1` [PIRTOBRUTINIB], the IC50 in [3] was 7.23 nM; in [4] it was 3.68 nM.

As to `CCn1c(=O)c(-c2cc(NC(=O)Nc3ccccc3)c(F)cc2Br)cc2cnc(NC)cc21` [RIPRETINIB], the half-maximal inhibitory concentration (IC50) in data set [5] is 34 nM.

For `O=C(/C=C\n1cnc(-c2cc(C(F)(F)F)cc(C(F)(F)F)c2)n1)NNc1cnccn1` [SELINEXOR], the half-maximal inhibitory concentration (IC50) in [6] turned out to be 34 nM.

For the compound `C=CC(=O)N1CCN(c2nc(=O)n(-c3c(C)ccnc3C(C)C)c3nc(-c4c(O)cccc4F)c(F)cc23)[C@@H](C)C1` [SOTORASIB], the 50% inhibitory concentration (IC50) with NCI-H358 worked out at 6 nM; with MIA PaCa-2 it was 9 nM.

(Values after ChEMBL document CHEMBL6071132, “Synthetic approaches and application of representative clinically approved fluorine-enriched anti-cancer medications” (Eur J Med Chem, 2024).)
